Data reported in ChEMBL document CHEMBL1201862, “PubChem BioAssay data set” (2004).
The source made the active and inactive calls.

What was measured:
[1] = biological target: T1, Corticotropin-releasing factor receptor 2/Corticotropin-releasing factor-binding protein (Homo sapiens, UniProt P24387+Q13324); test: Dose Response confirmation of uHTS hits for small molecule antagonists of the CRF-binding protein and CRF-R2 receptor complex.; type: functional; conditions: read-out: IC50_Mean
T1 sequence (Q13324 whole entry): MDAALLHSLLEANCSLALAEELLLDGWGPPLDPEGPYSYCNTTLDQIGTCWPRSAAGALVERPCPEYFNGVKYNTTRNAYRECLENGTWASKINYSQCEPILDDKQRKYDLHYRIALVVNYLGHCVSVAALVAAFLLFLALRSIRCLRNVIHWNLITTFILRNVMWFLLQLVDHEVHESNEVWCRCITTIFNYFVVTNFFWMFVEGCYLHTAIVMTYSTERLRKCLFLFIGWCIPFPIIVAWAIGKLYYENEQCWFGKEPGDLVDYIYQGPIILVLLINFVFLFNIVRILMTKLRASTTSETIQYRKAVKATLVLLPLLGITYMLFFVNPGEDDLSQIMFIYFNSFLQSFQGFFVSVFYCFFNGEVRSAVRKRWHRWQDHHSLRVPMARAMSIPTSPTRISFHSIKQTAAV
T1 sequence (P24387 whole entry): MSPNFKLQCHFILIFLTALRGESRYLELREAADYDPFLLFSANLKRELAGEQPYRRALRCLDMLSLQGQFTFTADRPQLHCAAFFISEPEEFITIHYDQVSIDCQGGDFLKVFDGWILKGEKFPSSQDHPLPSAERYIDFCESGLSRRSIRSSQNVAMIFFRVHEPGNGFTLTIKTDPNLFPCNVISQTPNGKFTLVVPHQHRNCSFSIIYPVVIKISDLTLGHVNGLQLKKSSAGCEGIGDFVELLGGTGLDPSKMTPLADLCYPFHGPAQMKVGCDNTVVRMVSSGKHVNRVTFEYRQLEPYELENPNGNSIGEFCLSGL

[2] = biological target: T1, Corticotropin-releasing factor receptor 2/Corticotropin-releasing factor-binding protein; test: activators of CRF receptor 2 with binding protein – uHTS hits, confirmation (AID 602473); type: functional; conditions: read-out: EC50_Mean
[3] = blockers of CRF-binding protein–CRF-R2 complex – cell-based, uHTS hits, 384-well, dose response (AID 651639); type: functional, Homo sapiens; conditions: read-out: IC50_Mean
[4] = HGIII-sPLA2 enzyme inhibition potency – biochemical, QFRET, IC50, dose response (AID 743457);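 further: green fluorescence rise as the enzyme cleaves BODIPY PC-A2 in liposomes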
[5] = biological target: T2, Low molecular weight phosphotyrosine protein phosphatase (Homo sapiens, UniProt P24666); type: functional; conditions: read-out: IC50_Mean;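 further: Dose-response confirmation assay measuring inhibition of LMPTP enzyme activity by fluorescence intensity read-out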
T2 sequence (P24666 whole entry): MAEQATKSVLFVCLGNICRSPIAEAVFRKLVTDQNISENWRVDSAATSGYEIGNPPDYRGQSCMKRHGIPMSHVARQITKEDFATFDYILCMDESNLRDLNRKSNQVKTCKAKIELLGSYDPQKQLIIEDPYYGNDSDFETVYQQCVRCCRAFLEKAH

[6] = biological target: T3, Polyadenylate-binding protein 1 (Homo sapiens, UniProt P11940); test: MLLE binding blockers, Cy5 peptide tracer – biochemical, fluorescence polarization, Cy5-PAM2 peptide, secondary, miRNA deadenylation inhibitor project, dose response (AID 602260); type: functional; conditions: read-out: IC50_Mean
T3 sequence (P11940 whole entry, the tested form may be a part): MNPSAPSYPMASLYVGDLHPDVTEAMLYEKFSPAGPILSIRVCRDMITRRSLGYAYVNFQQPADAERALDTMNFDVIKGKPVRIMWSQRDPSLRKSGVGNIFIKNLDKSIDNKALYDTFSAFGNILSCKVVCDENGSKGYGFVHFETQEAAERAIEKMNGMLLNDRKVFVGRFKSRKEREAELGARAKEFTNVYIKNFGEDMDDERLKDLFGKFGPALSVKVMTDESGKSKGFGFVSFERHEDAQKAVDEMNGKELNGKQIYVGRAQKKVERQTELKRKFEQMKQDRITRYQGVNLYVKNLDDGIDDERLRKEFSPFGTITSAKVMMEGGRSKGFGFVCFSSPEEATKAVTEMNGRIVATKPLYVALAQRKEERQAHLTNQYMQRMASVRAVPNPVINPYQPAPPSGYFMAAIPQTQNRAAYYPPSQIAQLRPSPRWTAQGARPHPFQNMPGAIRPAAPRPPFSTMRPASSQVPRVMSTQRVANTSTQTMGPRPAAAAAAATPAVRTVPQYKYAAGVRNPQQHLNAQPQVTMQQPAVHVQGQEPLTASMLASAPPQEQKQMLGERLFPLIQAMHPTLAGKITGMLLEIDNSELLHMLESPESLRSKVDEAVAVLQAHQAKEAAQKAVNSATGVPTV

[7] = biological target: T3, Polyadenylate-binding protein 1; test: MLLE domain peptide-binding blockers, IC50 – biochemical, fluorescence polarization, FITC-PAM2 peptide, dose response (AID 602259); type: functional; conditions: read-out: IC50_Mean
Caspase-3 = biological target: T4, Caspase-3 (Homo sapiens, UniProt P42574); type: functional;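 further: Dose-response selectivity test against caspase-3 for candidate inhibitors of sentrin-specific proteases (SENPs)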
T4 sequence (P42574 whole entry): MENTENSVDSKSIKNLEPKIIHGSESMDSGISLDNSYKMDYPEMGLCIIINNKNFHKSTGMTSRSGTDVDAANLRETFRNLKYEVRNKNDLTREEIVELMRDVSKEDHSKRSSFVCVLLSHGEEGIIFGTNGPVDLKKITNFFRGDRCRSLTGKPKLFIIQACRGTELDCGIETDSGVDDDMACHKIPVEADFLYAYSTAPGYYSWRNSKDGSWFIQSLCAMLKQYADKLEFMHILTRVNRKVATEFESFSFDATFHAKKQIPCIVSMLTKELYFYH

[8] = biological target: T5, Sentrin-specific protease 7 (Homo sapiens, UniProt Q9BQF6); type: functional;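 further: Luminescence-based dose-response confirmation of ultra-high-throughput screening hits, measuring inhibition of SENP7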
T5 sequence (Q9BQF6 whole entry): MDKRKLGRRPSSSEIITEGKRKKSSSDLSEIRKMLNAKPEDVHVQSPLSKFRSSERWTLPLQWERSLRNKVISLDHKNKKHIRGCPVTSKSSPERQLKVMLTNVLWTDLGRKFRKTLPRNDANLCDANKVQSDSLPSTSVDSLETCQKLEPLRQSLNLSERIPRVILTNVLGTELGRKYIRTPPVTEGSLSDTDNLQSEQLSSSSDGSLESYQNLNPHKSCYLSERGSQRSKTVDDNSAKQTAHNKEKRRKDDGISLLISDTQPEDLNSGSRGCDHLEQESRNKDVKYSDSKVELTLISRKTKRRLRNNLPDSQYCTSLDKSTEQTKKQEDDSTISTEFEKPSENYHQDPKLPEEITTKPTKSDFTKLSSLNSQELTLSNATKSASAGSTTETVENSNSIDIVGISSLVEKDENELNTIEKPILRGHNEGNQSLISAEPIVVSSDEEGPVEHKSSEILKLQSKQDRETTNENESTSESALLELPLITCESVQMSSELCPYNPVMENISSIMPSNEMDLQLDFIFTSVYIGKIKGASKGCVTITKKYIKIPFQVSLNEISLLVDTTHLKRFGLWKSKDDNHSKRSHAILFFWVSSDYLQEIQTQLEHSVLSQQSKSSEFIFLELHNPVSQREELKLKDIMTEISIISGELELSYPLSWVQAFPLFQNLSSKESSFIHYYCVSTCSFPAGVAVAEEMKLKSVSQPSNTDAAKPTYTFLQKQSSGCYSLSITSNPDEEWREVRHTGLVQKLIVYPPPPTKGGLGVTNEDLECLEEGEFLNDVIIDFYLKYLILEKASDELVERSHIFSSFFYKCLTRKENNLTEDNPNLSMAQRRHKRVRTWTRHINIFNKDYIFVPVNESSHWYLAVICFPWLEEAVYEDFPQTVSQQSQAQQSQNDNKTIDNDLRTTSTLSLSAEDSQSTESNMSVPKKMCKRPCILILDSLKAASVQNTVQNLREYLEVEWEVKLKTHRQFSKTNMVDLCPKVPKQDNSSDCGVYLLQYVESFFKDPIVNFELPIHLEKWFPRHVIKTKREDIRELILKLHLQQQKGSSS

[9] = biological target: T6, Sentrin-specific protease 6 (Homo sapiens, UniProt Q9GZR1); type: functional;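 further: Luminescence-based dose-response confirmatory assay of SENP6 inhibition, following up an ultra-high-throughput screen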
T6 sequence (Q9GZR1 whole entry): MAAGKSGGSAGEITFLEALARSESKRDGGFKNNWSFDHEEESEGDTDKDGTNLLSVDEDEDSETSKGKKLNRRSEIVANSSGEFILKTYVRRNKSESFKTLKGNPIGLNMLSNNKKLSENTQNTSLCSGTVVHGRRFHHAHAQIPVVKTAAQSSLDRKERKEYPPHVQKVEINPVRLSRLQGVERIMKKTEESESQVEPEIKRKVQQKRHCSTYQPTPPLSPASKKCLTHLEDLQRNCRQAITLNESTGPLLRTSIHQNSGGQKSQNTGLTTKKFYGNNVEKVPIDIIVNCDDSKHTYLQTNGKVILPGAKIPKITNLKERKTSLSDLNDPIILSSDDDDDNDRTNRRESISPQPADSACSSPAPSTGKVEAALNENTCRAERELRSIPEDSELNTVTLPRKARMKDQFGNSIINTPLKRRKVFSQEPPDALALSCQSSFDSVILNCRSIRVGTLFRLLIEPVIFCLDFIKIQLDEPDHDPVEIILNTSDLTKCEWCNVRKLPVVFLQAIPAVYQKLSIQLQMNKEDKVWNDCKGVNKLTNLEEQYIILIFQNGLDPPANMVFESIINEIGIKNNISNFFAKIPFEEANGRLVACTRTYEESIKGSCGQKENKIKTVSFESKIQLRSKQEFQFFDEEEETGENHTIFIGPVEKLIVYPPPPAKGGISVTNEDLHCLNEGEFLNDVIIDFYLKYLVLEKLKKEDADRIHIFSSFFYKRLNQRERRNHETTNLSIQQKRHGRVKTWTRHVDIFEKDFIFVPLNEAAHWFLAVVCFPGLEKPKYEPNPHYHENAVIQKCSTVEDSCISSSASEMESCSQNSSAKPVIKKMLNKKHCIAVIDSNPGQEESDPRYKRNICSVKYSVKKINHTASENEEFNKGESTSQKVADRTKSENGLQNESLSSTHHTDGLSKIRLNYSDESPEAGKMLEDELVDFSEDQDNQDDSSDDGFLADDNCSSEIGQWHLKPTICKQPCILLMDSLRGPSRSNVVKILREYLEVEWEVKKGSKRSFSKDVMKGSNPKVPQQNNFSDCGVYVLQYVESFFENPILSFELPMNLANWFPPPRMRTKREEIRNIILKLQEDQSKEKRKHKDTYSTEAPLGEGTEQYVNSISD

[10] = biological target: T7, Sentrin-specific protease 8 (Homo sapiens, UniProt Q96LD8); type: functional;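 further: luminescence read-out of SENP8 inhibition, dose-response confirmation following an ultra-high-throughput screen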
T7 sequence (Q96LD8 whole entry): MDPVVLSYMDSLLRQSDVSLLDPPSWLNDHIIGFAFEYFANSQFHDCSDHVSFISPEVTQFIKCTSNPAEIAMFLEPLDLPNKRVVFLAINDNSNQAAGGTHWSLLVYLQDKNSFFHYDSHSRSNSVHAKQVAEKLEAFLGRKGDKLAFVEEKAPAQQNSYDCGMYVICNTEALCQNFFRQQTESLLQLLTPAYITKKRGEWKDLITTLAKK

[11] = Trypanosoma cruzi growth suppression in host cells – NIH3T3 host cells, beta-gal luminescence, confirmation (AID 2044); type: functional, cell-based;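 further: intracellular parasites grown in NIH/3T3 mouse fibroblasts as host cells; luminescent beta-galactosidase reporter signal from transgenic T. cruzi replicating inside host cells; inhibitors lower the luminescence signal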
[12] = NIH3T3 cell viability loss – ATP luminescence, mouse fibroblasts, counter-screen, dose response (AID 2010); type: functional, cell-based;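 further: cells exposed to compound for about 90 hours before reading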
Protein Wnt-3a = Protein Wnt-3a (Mus musculus, UniProt P27467); test: antagonism of Wnt3a pathway luciferase reporter – Wnt-LIGHT cells, luminescence, selectivity assay for Gli-SUFU antagonist project, dose response (AID 651570); type: functional; conditions: read-out: IC50_Mean;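 further: Wnt-LIGHT reporter cells stimulated with conditioned medium from Wnt3a-producing cells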
Sequence of Protein Wnt-3a (P27467 whole entry): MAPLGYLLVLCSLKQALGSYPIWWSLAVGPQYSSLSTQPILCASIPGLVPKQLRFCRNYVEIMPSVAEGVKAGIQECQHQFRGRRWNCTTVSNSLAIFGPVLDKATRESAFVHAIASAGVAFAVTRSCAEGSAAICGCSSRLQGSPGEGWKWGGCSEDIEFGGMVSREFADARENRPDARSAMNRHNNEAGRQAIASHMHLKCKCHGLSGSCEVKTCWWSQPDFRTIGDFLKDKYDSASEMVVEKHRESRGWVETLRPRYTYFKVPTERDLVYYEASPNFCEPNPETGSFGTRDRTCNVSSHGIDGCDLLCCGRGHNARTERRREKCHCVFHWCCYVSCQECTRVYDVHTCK

Paired box protein Pax-8 = Paired box protein Pax-8 (Homo sapiens, UniProt Q06710); test: PAX8 transcriptional activity inhibition in RMG-I – RMG-I cells, luciferase, cherry-pick, dose response (AID 687027); type: functional, cell-based;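 further: luciferase reporter driven by Pax8 target thyroperoxidase promoter measured by SteadyGlo luminescence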
Sequence of Paired box protein Pax-8 (Q06710 whole entry): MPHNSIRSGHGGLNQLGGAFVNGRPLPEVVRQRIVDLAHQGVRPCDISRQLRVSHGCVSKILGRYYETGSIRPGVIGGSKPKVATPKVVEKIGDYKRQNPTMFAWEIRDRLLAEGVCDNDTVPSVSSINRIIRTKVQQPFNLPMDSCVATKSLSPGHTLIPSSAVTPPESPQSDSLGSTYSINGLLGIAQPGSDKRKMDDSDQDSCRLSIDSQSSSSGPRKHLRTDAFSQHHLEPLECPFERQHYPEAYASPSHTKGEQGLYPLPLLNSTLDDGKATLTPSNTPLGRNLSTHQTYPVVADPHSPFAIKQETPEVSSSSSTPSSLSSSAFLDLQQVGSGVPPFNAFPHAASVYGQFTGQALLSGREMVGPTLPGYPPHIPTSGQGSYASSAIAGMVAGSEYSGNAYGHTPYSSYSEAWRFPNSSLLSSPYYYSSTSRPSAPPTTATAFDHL

[13] = OVCAR-3 cell viability loss – plate reader, dry powder samples, PAX8 inhibitor project, dose response (AID 743044); type: functional, cell-based
[14] = IGROV1 cell killing – plate reader, dry powder samples, PAX8 inhibitor project, dose response (AID 743043); type: functional, cell-based; conditions: IGROV-1
[15] = OVCAR8 cell viability loss – plate reader, dry powder samples, PAX8 project, dose response (AID 743197); type: functional, cell-based; conditions: OVCAR-8
BJ [16] = test: BJ-TERT fibroblast viability loss – cell-based, RAS-independent, luminescence, dose response (AID 1933); type: functional, Homo sapiens; conditions: Homo sapiens, BJ
BJ [17] = test: cells; type: functional, cell-based, Homo sapiens; conditions: Homo sapiens, BJ
BJ [18] = test: BJ-TERT-LT-ST fibroblast viability loss – cell-based, RAS-independent, luminescence, dose response (AID 1935); type: functional, Homo sapiens; conditions: Homo sapiens, BJ;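 further: BJ fibroblasts immortalized with TERT plus LT and ST oncogenes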
[19] = DRD fibroblast viability loss – cell-based, non-viral oncogenic, luminescence, dose response (AID 1934); type: functional; conditions: Homo sapiens

With `COc1ccc(NC(=O)NC(C)c2ccc3c(c2)OCO3)c(OC)c1` (centres undefined) the IC50 [1] was < 0.368 µM (active), the EC50 [2] was > 53 µM (inactive) and the IC50 [3] was > 20 µM (inactive).

For `O=C1C(=O)N(Cc2ccc(-c3ccc(Cl)nc3)cc2)c2ccc(OC(F)(F)F)cc21`, the IC50 [4] was > 122 µM (inactive).

With `N=c1c(C(=O)NCc2ccco2)cc2c(=O)n3ccccc3nc2n1Cc1ccc(Cl)cc1` the IC50 [5] was 41.8 µM (inactive).

For `C/C(=N\NC(=S)NCCc1ccccc1)c1ccc(O)cc1O`, the IC50 [6] was > 66 µM (inactive), the IC50 [7] was > 66 µM (inactive) and the IC50 [4] was > 122 µM (inactive).

With `CCOC(=O)/C=C(\C)N1N=C(c2ccccc2)CC1c1ccccc1` (centres undefined) the IC50 (Caspase-3) was 19.8 µM (active), the IC50 [8] was 6.48 µM (active) and the IC50 [9] was 19.7 µM (active). The IC50 [10] was 36.1 µM (active).

For `CCOc1ccccc1/N=C1\SC(CC(=O)Nc2ccc(OC)cc2OC)C(=O)N1CCC1=CCCCC1` (centres undefined), the EC50 [11] was 1.98 µM (active), the EC50 [12] was > 60 µM (not active) and the IC50 [1] was < 0.368 µM (active). The EC50 [2] was > 53 µM (inactive) and the IC50 [3] was > 20 µM (inactive).

In the case of `c1ccc(C[n+]2c(-c3ccccc3)cn3c2SCCC3)cc1`, the IC50 (Protein Wnt-3a) is reported as 7.13 µM (active).

With `COc1ccc(-n2c(SCC(=O)NN=C(S)Nc3ccccc3)nc3ccccc3c2=O)cc1` the IC50 [4] was > 40.6 µM (inactive).

With `O=C1/C(=C/N(C(=O)c2ccco2)c2ccc(Br)cc2)Sc2ccccc21` the IC50 (Caspase-3) was 16.2 µM (active), the IC50 [8] was 13.9 µM (active) and the IC50 [9] was 19 µM (active). The IC50 [10] was 24.7 µM (active).

With `C[C@@H]1CN([C@@H](C)CO)C(=O)Cc2cc(NC(=O)Nc3ccc(C(F)(F)F)cc3)ccc2O[C@H]1CN(C)Cc1ccc2c(c1)OCO2` the AC50 (Paired box protein Pax-8) was 7.85 µM (active), the AC50 [13] was 24 µM (active) and the AC50 [14] was 63.7 µM (active). For the same compound, the AC50 [15] was 41.5 µM (active).

For `Oc1cc(C(F)(F)F)nc2ccc(OC(F)(F)F)cc12`, the EC50 (BJ [16]) was 38.8 µM (active), the EC50 (BJ [17]) was 41.4 µM (active) and the EC50 (BJ [18]) was > 150 µM (not active). For the same compound, the EC50 [19] was 38.4 µM (active), the IC50 [1] was 4.24 µM (active) and the EC50 [2] was 5.39 µM (active). The IC50 [3] was > 20 µM (inactive).
